Reference: PubChem BioAssay (NCI)
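Protocol summary: plate cells (96-well), add compound at 5 concentrations, incubate 48 h, interpolate endpoints linearly. TGI: concentration producing complete growth inhibition.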 Where a SMILES comes first, the peptide text is derived from it. [ ]: non-standard residue; d: D form. The star is where a group is joined. ξ: configuration not given here. ξF = NC(Cc1ccccc1)C(=O)O; Cbz = O=C(OCc1ccccc1)*; Aib = CC(C)(N)C(=O)O

What was measured:
Test in all cases: NCI tumour cell line growth inhibition, 48 h
[1] = test system: SW-620 colon
[2] = test system: OVCAR-3 ovarian
[3] = test system: U251 CNS
[4] = test system: HCT-116 colon
[5] = test system: MCF7 breast
[6] = test system: UACC-257 melanoma
[7] = test system: NCI-H226 lung
[8] = test system: NCI/ADR-RES ovarian
[9] = test system: SNB-19 CNS
[10] = test system: NCI-H522 lung

For CC(C)CCCC(C)[C@H]1CC[C@H]2n3c(nc4ccccc43)CCC[C@]12C (some centres undefined), the TGI [1] was 47.3 µM, the TGI [2] was 39 µM and the TGI [3] was 42.6 µM. It also gave a TGI [4] of 53.4 µM, a TGI [5] of 28.5 µM and a TGI [6] of 38.1 µM. The TGI [7] was 33.5 µM, the TGI [8] was 33.8 µM and the TGI [9] was 37.1 µM.
For O=C(Oc1c(Cl)cc(C2(c3cc(Cl)c(OC(=O)c4ccccc4)c(Cl)c3)CCCCC2)cc1Cl)c1ccccc1, the TGI [1] was 39.5 µM, the TGI [2] was 27.9 µM and the TGI [3] was 26.8 µM. For the same compound, the TGI [4] was 25.9 µM, the TGI [5] was 25.2 µM and the TGI [6] was 26.1 µM. For the same compound, the TGI [7] was 42.5 µM, the TGI [8] was 27.1 µM and the TGI [9] was 35.4 µM. For the same compound, the TGI [10] was 29.3 µM.
For C=C1C(=O)O[C@@H]2/C=C(\C)CC/C=C(\C)CC[C@@]12O, the TGI [1] was 3.46 µM, the TGI [2] was 6.43 µM and the TGI [3] was 19.7 µM. The TGI [4] was 6.69 µM, the TGI [5] was 14.5 µM and the TGI [6] was 31.7 µM. For the same compound, the TGI [7] was 59.2 µM, the TGI [8] was 41.6 µM and the TGI [9] was 16.9 µM. For the same compound, the TGI [10] was 1.38 µM.
Work on CCc1n[nH]c(=O)n1/N=C(\C)c1ccc([N+](=O)[O-])cc1 yielded a TGI [1] of over 100 µM, a TGI [2] of over 100 µM and a TGI [3] of over 100 µM. For the same compound, the TGI [4] was over 100 µM, the TGI [5] was over 100 µM and the TGI [6] was over 100 µM. For the same compound, the TGI [7] was over 100 µM, the TGI [8] was over 100 µM and the TGI [9] was over 100 µM.
COc1cc(/C=C2\N=C(c3ccccc3)N(c3ccc(C(=O)c4ccccc4)cc3N3C(=O)/C(=C/c4ccc(O)c(OC)c4)N=C3c3ccccc3)C2=O)ccc1O showed a TGI [1] of over 100 µM, a TGI [2] of 8.7 µM and a TGI [3] of 37.5 µM. For the same compound, the TGI [4] was 23.2 µM, the TGI [5] was 20.2 µM and the TGI [6] was 39.6 µM. For the same compound, the TGI [8] was 89.5 µM and the TGI [9] was over 100 µM.
CCCCN1C(=O)c2c(Br)sc(Br)c2C1=O was tested, and the TGI [1] was 66.2 µM, the TGI [3] was over 100 µM and the TGI [4] was 65.6 µM. For the same compound, the TGI [5] was over 100 µM, the TGI [6] was over 100 µM and the TGI [7] was over 100 µM. For the same compound, the TGI [8] was 88.2 µM, the TGI [9] was over 100 µM and the TGI [10] was over 100 µM.
Compound Cc1[nH]c(=O)[nH]c(=O)c1/C=C/C(=O)NC(CO)CS(=O)CS(C)=O (centres undefined) has a TGI [1] of 409 µM, a TGI [2] of 31.1 µM and a TGI [3] of 39.6 µM. The TGI [4] was 129 µM, the TGI [5] was 125 µM and the TGI [6] was 151 µM. The TGI [7] was 77.3 µM, the TGI [8] was 263 µM and the TGI [9] was 77.9 µM. The TGI [10] was 32.3 µM.
Cc1cc2c(c(O)c1-c1c(C)cc(O)c3c1C(=O)C=CC3=O)C(=O)C=CC2=O gave a TGI [2] of 5.99 µM, a TGI [3] of 32.1 µM and a TGI [7] of 73.5 µM. It also gave a TGI [8] of 13.8 µM and a TGI [9] of over 56.8 µM.
In the case of COc1ccc(-c2nc3c(nc2-c2ccc(OC)cc2)C(N)=NS(=O)(=O)N3)cc1, the TGI [1] is reported as over 100 µM, the TGI [2] is reported as over 100 µM and the TGI [3] is reported as over 100 µM. For the same compound, the TGI [6] was over 100 µM, the TGI [7] was over 100 µM and the TGI [9] was over 100 µM. It also gave a TGI [10] of over 100 µM.
Compound CC(=O)O[C@H]1CC[C@H]2[C@@H]3CCC4=CC(=O)C=C[C@]4(O)[C@H]3CC[C@]12C has a TGI [1] of over 57.5 µM, a TGI [2] of over 100 µM and a TGI [3] of over 100 µM. The TGI [4] was over 100 µM, the TGI [5] was over 83.5 µM and the TGI [6] was over 81.9 µM. For the same compound, the TGI [7] was over 96.7 µM, the TGI [8] was 46.2 µM and the TGI [9] was over 100 µM.
With CC(=O)Nc1cccc(N2C(=O)/C(=C\c3cccc(Oc4ccccc4)c3)S(=O)(=O)C2c2ccccc2)c1 (centres undefined) the TGI [1] was over 100 µM, the TGI [2] was over 100 µM and the TGI [3] was over 100 µM. The TGI [4] was over 100 µM, the TGI [5] was over 100 µM and the TGI [6] was over 100 µM. For the same compound, the TGI [7] was over 100 µM, the TGI [8] was over 100 µM and the TGI [9] was over 100 µM. The TGI [10] was over 100 µM.
In the case of CCOC(=O)Cn1c2ccc(Br)cc2c2nc3ccccc3nc21, the TGI [1] is reported as over 100 µM, the TGI [2] is reported as over 100 µM and the TGI [3] is reported as over 100 µM. The TGI [4] was over 100 µM, the TGI [6] was over 100 µM and the TGI [7] was over 100 µM. For the same compound, the TGI [8] was over 100 µM and the TGI [9] was over 100 µM.
Compound COc1ccc(NC(C)=O)cc1N1C(=O)/C(=C\c2ccccc2)SC1c1cc(OC)c(OC)c(OC)c1 (centres undefined) has a TGI [1] of over 100 µM, a TGI [2] of over 100 µM and a TGI [3] of over 100 µM. For the same compound, the TGI [4] was 29.5 µM, the TGI [5] was over 100 µM and the TGI [6] was over 100 µM. It also gave a TGI [7] of 48.3 µM, a TGI [8] of 41 µM and a TGI [9] of over 100 µM. For the same compound, the TGI [10] was 35.4 µM.
For CCOC(=O)CNC(=O)C(Cc1ccccc1)NC(=O)C(C)(C)NC(=O)OCc1ccccc1 (centres undefined) (Cbz-[Aib]-[ξF]-Gly-OEt), the TGI [1] was over 100 µM, the TGI [2] was 78.2 µM and the TGI [3] was over 100 µM. It also gave a TGI [4] of over 100 µM, a TGI [5] of over 100 µM and a TGI [6] of over 100 µM. For the same compound, the TGI [8] was over 100 µM, the TGI [9] was over 100 µM and the TGI [10] was over 100 µM.
With C[Si](C)(C)c1ccc(-c2c3ccc(-c4cc(Br)cc(Br)c4)nc3nc3nc(-c4cc(Br)cc(Br)c4)ccc23)cc1 the TGI [2] was over 100 µM, the TGI [3] was over 100 µM and the TGI [4] was over 100 µM. The TGI [5] was over 100 µM, the TGI [6] was over 100 µM and the TGI [7] was over 100 µM. For the same compound, the TGI [8] was over 100 µM, the TGI [9] was over 100 µM and the TGI [10] was over 100 µM.
Work on CSc1nc(CO)c(CO)n1C yielded a TGI [1] of over 100 µM, a TGI [2] of over 100 µM and a TGI [3] of over 100 µM. The TGI [4] was over 100 µM, the TGI [5] was over 100 µM and the TGI [6] was over 100 µM. The TGI [7] was over 100 µM, the TGI [8] was over 100 µM and the TGI [9] was over 100 µM. The TGI [10] was over 100 µM.
CC1(CO)COS(=O)OC1 (centres undefined) was tested, and the TGI [1] was over 100 µM, the TGI [2] was over 100 µM and the TGI [3] was over 100 µM. For the same compound, the TGI [4] was over 100 µM, the TGI [5] was over 100 µM and the TGI [6] was over 100 µM. For the same compound, the TGI [7] was over 100 µM, the TGI [8] was over 100 µM and the TGI [9] was over 100 µM. For the same compound, the TGI [10] was over 100 µM.
In the case of Nc1ccc(O)c2c1C(=O)c1c(N)ccc(O)c1C2=O, the TGI [1] is reported as over 100 µM, the TGI [2] is reported as over 100 µM and the TGI [3] is reported as over 100 µM. For the same compound, the TGI [4] was over 100 µM, the TGI [6] was over 100 µM and the TGI [9] was over 100 µM. The TGI [10] was over 100 µM.
Work on O=C(NC(Cc1ccc(Br)cc1)C(=O)O)c1ccc(I)cc1 (centres undefined) yielded a TGI [1] of over 100 µM, a TGI [2] of over 100 µM and a TGI [3] of over 100 µM. It also gave a TGI [4] of over 100 µM, a TGI [5] of over 100 µM and a TGI [6] of over 100 µM. The TGI [7] was over 100 µM, the TGI [8] was over 100 µM and the TGI [9] was over 100 µM. It also gave a TGI [10] of over 100 µM.
With CC(C)(C)OC(=O)N1C(OP(=O)(Oc2ccccc2)Oc2ccccc2)=CSc2ccccc21 the TGI [1] was over 100 µM, the TGI [2] was over 100 µM and the TGI [3] was over 100 µM. For the same compound, the TGI [4] was over 100 µM, the TGI [5] was over 100 µM and the TGI [6] was over 100 µM. The TGI [7] was over 100 µM, the TGI [8] was over 100 µM and the TGI [9] was over 100 µM. The TGI [10] was over 100 µM.
In the case of COc1cc(/C=N/c2nc3cc4sc(/N=C/c5cc(OC)c(OC)c(OC)c5)nc4cc3s2)cc(OC)c1OC, the TGI [1] is reported as over 100 µM, the TGI [2] is reported as over 100 µM and the TGI [3] is reported as over 100 µM. It also gave a TGI [4] of over 100 µM, a TGI [5] of over 100 µM and a TGI [6] of over 100 µM. It also gave a TGI [7] of over 100 µM, a TGI [8] of over 100 µM and a TGI [9] of over 100 µM. For the same compound, the TGI [10] was over 100 µM.
